# Data published in ChEMBL document CHEMBL1201862, “PubChem BioAssay data set” (2004).
# Calls of active or inactive are those of the source.
# Experiments:
# Type in all cases: functional
# [1] = target: T1, Microphthalmia-associated transcription factor (Homo sapiens, UniProt O75030); assay: TRPM1 promoter luciferase signal decrease, dose response, MITF inhibitor project, cell-based, SK-MEL-5, cherry-picked, set 3 (AID 493073)
# T1 sequence (O75030 whole entry): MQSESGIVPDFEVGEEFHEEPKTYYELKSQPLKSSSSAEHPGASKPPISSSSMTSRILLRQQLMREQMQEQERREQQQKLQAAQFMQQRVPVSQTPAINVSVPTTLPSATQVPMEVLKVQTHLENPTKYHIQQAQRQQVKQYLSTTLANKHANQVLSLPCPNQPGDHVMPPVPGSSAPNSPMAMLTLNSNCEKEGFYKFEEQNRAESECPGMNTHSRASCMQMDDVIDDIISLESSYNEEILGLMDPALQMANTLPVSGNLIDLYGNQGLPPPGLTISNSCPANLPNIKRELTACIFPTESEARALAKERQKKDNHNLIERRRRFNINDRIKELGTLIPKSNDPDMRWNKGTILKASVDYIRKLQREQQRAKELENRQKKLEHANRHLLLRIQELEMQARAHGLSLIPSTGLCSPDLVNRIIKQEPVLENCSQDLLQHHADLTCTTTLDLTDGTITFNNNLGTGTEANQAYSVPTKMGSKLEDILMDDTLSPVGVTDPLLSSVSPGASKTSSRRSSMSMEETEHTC
# [2] = target: T2, Heat shock factor protein 1 (Mus musculus, UniProt P38532); assay: inhibition of MG132-induced HSE-luciferase signal, confirmation, cell-based, NIH3T3, luminescence, dose retest (AID 2382);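 also: NIH3T3 fibroblasts with HSF1-driven luciferase reporter stressed by proteasome inhibitor MG132; luminescence from HSF1-driven luciferase expression after 8 hours of MG132 stress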
# T2 sequence (P38532 whole entry): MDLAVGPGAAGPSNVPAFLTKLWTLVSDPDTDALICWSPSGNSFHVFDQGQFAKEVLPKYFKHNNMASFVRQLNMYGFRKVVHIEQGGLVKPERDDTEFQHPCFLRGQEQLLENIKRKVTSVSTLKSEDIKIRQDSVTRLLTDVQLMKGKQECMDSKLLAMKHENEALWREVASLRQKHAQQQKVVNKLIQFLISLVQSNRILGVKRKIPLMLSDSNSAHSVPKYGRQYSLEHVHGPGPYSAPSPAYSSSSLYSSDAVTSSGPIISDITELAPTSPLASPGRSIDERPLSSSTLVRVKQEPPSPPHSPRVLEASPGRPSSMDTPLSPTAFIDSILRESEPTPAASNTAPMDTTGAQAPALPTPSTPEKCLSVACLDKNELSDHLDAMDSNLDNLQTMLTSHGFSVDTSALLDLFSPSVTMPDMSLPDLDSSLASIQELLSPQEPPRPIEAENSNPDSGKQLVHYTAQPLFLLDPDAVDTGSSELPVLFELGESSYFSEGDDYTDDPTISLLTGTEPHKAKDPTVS
# Coagulation factor XII = target: T3, Coagulation factor XII (Homo sapiens, UniProt P00748);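 also: activated factor XIIa alpha cleaving a fluorogenic AMC peptide substrate; inhibitor potency from loss of enzyme activity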
# T3 sequence (P00748 whole entry): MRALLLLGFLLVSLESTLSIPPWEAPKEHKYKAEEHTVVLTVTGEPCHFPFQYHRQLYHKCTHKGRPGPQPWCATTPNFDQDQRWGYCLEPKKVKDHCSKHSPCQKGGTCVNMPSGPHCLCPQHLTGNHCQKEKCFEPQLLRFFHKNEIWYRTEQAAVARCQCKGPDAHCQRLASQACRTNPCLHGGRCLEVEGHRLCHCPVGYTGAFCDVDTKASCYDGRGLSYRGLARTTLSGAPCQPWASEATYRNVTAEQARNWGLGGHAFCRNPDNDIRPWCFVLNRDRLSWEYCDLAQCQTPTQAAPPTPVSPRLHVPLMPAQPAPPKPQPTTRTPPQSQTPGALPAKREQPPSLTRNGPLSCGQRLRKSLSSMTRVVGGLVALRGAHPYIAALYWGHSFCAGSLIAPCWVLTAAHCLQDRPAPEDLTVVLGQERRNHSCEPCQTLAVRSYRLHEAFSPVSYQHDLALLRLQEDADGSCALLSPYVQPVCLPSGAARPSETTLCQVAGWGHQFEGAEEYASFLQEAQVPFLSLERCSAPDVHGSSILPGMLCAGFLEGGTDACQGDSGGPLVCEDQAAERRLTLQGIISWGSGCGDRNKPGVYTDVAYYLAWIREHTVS
# [3] = target: Tyrosine-protein kinase FRK (Homo sapiens, UniProt P42685);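 also: FRK tested as one member of a kinome panel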
# [4] = target: Mitogen-activated protein kinase 12 (Homo sapiens, UniProt P53778);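 also: measured as one member of a kinome-wide kinase profiling panel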
# [5] = target: Protein kinase C delta type (Homo sapiens, UniProt Q05655)
# [6] = target: Cyclin-dependent kinase 9 (Homo sapiens, UniProt P50750);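 also: value from the CDK9 entry of a kinome-spanning kinase panel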
# SRSF protein kinase 1 = SRSF protein kinase 1 (Homo sapiens, UniProt Q96SB4);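 also: measured as one member of a kinome-wide kinase profiling panel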
# [7] = target: cAMP-dependent protein kinase catalytic subunit PRKX (Homo sapiens, UniProt P51817)
# [8] = target: Mast/stem cell growth factor receptor Kit (Homo sapiens, UniProt P10721);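 also: KIT entry within a kinase panel assay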
# [9] = target: Tyrosine-protein kinase JAK3 (Homo sapiens, UniProt P52333)
# [10] = target: Calcium/calmodulin-dependent protein kinase type 1 (Homo sapiens, UniProt Q14012)
# [11] = target: Casein kinase II subunit alpha (Homo sapiens, UniProt P68400)
# [12] = target: Receptor tyrosine-protein kinase erbB-2 (Homo sapiens, UniProt P04626); assay: Navigating the Kinome. Panel member name: ERBB2
# [13] = target: Serine/threonine-protein kinase 3 (Homo sapiens, UniProt Q13188);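 also: measured as one member of a kinome-wide kinase panel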
# [14] = target: Calcium/calmodulin-dependent protein kinase type II subunit beta (Homo sapiens, UniProt Q13554)
# [15] = target: Cell division cycle 7-related protein kinase (Homo sapiens, UniProt O00311);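 also: value obtained from a kinome-wide kinase panel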
# [16] = target: Platelet-derived growth factor receptor alpha (Homo sapiens, UniProt P16234); assay: Navigating the Kinome. Panel member name: PDGFRA
# [17] = target: Homeodomain-interacting protein kinase 2 (Homo sapiens, UniProt Q9H2X6);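 also: measured within a kinome-wide kinase profiling panel, HIPK2 being one panel member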
# [18] = target: Serine/threonine-protein kinase D2 (Homo sapiens, UniProt Q9BZL6);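 also: measured against PRKD2 as one member of a kinome-wide kinase profiling panel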
# Ephrin type-A receptor 2 = Ephrin type-A receptor 2 (Homo sapiens, UniProt P29317);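 also: EPHA2 tested as one member of a kinome-wide kinase panel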
# [19] = target: Interleukin-1 receptor-associated kinase 1 (Homo sapiens, UniProt P51617);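 also: IRAK1 tested as one member of a kinome panel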
# Casein kinase II subunit alpha, sequence (P68400 whole entry): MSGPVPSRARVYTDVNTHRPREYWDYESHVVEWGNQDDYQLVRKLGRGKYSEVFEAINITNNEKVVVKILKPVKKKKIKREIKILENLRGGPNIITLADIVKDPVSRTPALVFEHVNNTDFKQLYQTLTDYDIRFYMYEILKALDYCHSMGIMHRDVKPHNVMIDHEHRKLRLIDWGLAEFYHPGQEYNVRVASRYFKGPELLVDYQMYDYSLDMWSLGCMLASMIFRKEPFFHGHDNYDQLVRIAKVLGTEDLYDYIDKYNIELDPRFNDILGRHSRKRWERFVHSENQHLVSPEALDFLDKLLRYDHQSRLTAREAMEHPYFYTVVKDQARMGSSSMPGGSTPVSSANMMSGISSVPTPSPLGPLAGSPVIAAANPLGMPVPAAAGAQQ
# SRSF protein kinase 1, sequence (Q96SB4 whole entry): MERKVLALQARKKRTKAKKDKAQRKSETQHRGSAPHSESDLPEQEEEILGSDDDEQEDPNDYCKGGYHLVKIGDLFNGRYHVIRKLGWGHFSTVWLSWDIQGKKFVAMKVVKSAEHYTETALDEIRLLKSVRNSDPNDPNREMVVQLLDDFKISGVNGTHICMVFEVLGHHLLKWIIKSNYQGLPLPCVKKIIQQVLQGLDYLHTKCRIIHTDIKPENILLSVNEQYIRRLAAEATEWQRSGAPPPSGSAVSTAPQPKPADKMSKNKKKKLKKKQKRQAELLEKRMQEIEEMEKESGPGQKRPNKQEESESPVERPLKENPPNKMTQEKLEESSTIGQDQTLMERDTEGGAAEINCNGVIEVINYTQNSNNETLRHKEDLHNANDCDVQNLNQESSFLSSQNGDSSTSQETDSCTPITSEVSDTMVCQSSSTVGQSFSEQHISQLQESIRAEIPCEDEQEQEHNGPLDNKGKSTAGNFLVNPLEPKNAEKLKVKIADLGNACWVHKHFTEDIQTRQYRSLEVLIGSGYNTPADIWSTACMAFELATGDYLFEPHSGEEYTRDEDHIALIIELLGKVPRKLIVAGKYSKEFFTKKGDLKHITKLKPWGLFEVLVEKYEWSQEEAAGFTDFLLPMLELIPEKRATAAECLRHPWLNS
# Mast/stem cell growth factor receptor Kit, sequence (P10721 whole entry): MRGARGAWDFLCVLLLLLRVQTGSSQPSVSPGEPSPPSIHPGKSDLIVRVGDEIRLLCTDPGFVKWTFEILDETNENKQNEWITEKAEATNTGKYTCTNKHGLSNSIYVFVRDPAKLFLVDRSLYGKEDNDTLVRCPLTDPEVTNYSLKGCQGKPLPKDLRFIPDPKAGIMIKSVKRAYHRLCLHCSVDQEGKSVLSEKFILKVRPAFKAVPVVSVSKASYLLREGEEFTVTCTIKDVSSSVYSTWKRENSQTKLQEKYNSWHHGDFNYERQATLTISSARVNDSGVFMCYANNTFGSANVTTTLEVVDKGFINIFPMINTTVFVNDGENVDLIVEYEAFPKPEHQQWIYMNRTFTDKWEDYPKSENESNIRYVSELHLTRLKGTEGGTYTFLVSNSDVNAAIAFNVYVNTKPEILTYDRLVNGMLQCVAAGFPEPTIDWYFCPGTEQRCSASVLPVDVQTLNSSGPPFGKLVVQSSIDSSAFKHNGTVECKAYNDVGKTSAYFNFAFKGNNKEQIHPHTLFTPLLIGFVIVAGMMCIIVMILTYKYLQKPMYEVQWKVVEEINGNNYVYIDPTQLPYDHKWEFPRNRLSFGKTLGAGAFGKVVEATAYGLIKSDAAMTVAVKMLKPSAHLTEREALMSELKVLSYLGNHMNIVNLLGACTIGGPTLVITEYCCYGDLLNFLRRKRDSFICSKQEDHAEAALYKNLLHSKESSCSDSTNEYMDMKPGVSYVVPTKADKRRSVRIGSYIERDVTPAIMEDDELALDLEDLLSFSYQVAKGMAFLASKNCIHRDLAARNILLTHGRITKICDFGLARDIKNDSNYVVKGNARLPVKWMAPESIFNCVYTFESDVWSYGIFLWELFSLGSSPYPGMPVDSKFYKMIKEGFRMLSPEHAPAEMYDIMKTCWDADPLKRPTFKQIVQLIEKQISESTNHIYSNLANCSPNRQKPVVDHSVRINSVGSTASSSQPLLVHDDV
# Receptor tyrosine-protein kinase erbB-2, sequence (P04626 whole entry): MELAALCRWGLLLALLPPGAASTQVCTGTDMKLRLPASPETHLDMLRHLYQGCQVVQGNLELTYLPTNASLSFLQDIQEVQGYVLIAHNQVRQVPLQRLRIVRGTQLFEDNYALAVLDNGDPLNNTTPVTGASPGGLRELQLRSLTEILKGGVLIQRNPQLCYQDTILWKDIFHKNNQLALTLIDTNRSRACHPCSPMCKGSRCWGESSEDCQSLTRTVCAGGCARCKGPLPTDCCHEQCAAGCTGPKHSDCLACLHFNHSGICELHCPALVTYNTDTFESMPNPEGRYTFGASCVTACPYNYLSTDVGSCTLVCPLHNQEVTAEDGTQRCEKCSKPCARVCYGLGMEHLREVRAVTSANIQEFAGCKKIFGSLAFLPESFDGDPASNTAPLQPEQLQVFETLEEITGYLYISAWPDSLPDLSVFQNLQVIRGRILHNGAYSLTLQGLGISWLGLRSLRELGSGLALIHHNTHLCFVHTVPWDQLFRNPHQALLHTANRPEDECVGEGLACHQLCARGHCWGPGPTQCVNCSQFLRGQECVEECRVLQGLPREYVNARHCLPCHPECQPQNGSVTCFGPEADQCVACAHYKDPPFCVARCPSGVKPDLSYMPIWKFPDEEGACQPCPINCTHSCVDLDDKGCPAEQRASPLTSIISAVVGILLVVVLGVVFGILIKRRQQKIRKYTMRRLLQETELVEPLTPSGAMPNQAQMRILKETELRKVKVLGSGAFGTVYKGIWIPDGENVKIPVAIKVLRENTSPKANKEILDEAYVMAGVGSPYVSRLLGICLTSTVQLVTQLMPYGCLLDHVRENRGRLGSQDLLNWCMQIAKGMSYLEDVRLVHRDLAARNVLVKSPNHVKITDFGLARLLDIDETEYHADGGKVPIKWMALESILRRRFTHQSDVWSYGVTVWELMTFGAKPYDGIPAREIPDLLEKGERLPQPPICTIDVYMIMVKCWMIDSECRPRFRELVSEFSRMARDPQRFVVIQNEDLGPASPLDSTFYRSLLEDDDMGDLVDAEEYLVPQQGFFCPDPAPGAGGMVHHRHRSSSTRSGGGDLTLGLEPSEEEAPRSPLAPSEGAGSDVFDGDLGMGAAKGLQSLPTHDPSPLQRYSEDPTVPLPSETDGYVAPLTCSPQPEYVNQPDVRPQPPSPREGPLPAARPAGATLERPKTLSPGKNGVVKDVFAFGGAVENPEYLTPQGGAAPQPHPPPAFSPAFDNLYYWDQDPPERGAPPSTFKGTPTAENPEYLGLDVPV
# Calcium/calmodulin-dependent protein kinase type 1, sequence (Q14012 whole entry): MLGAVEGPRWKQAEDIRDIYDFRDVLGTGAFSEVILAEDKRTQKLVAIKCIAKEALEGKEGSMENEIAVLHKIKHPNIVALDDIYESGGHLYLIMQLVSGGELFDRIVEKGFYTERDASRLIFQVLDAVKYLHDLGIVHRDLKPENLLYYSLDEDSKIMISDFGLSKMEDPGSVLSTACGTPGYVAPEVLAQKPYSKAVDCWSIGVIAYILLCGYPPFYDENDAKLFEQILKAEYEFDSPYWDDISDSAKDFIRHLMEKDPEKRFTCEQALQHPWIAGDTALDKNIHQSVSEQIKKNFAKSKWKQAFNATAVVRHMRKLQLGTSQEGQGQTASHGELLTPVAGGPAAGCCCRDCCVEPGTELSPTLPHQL
# Ephrin type-A receptor 2, sequence (P29317 whole entry): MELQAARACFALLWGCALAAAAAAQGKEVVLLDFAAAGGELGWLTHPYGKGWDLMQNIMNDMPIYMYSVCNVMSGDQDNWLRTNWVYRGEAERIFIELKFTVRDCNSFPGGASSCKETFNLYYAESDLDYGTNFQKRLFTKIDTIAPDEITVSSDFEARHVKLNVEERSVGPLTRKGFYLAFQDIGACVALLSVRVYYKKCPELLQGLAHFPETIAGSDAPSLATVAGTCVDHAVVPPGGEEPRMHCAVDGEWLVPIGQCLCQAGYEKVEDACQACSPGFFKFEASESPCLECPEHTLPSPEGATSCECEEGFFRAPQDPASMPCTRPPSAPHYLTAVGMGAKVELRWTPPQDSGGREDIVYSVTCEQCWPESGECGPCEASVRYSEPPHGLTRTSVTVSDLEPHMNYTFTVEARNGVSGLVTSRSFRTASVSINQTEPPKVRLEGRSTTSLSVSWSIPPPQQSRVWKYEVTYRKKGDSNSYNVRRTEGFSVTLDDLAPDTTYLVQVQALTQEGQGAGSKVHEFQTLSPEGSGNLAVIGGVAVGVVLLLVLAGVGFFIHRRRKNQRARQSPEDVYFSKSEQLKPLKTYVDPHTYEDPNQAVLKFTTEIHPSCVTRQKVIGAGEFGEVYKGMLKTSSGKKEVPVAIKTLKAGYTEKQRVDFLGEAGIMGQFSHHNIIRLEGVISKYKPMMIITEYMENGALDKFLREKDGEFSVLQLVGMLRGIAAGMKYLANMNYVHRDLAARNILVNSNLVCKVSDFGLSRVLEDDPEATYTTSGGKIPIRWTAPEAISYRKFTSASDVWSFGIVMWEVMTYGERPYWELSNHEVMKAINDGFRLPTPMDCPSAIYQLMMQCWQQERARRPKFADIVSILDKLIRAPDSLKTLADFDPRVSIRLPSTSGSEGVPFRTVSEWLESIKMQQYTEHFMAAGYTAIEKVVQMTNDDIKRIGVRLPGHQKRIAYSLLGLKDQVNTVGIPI
# Mitogen-activated protein kinase 12, sequence (P53778 whole entry): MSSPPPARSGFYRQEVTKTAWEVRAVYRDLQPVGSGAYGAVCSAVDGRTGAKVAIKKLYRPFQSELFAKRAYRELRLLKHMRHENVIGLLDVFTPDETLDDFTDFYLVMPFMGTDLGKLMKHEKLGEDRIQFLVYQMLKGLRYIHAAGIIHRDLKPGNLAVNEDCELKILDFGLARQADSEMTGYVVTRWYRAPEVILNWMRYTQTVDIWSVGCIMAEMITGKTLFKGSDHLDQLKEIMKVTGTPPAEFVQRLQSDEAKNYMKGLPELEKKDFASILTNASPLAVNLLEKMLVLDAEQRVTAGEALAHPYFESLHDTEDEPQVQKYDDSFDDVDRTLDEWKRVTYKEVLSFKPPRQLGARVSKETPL
SMILES,AC50 [1],EC50 [2],Ki [3],Ki [4],Ki [5],Ki [6],Ki (SRSF protein kinase 1),Ki [7],Ki [8],Ki [9],Ki [10],Ki [11],Ki [12],Ki [13],Ki [14],Ki [15],Ki [16],Ki [17],Ki [18],Ki (Ephrin type-A receptor 2),other results
Cc1c(/N=C2\C=CC(=O)c3ccccc32)c(=O)n(-c2ccccc2)n1C,5.26 µM (active),,,,,,,,,,,,,,,,,,,,
COC(=O)CCS(=O)(=O)c1nc(-c2ccccc2)cc(C(F)(F)F)n1,5.85 µM (active),9.59 µM (inconclusive),,,,,,,,,,,,,,,,,,,
O=C(O)c1ccc(NC2=C(Cl)C(=O)c3ccccc3C2=O)cc1,,6.24 µM (active),,,,,,,,,,,,,,,,,,,IC50 (Coagulation factor XII): > 50 µM (inactive)
COc1cc2c(cc1F)C(c1ccccc1Cl)=Nc1c(n[nH]c1C)N2 [RG-1530],,,0.0794 µM (active),> 6.31 µM (inactive),3.16 µM (active),> 1.58 µM (inactive),3.16 µM (active),> 1.58 µM (inactive),0.2 µM (active),0.0794 µM (active),> 3.16 µM (inactive),2.51 µM (active),> 1.58 µM (inactive),0.0398 µM (active),> 7.94 µM (inactive),> 1.26 µM (inactive),0.316 µM (active),> 3.16 µM (inactive),> 10 µM (inactive),0.0501 µM (active),
Cc1ccc2nccc(NC(=O)Nc3cccc(C(F)(F)F)n3)c2c1,,,0.1 µM (active),> 6.31 µM (inactive),> 7.94 µM (inactive),,> 7.94 µM (inactive),> 2.51 µM (inactive),> 3.16 µM (inactive),> 3.16 µM (inactive),> 3.16 µM (inactive),0.251 µM (active),> 1.58 µM (inactive),0.158 µM (active),> 7.94 µM (inactive),> 1.26 µM (inactive),,0.794 µM (active),> 10 µM (inactive),> 3.16 µM (inactive),Ki [19]: > 7.94 µM (inactive)
Cc1nn(C)c2sc3c(=O)[nH]cnc3c12,,,,,,> 63.1 µM (inactive),,,,,,,,,,,100 µM (active),,,,
